In test [1] the test system is influenza A/Aichi/2/69 (H3N2) virus. The experiment in a line: Murine influenza pneumonia model. The format is in vivo, mice. To be noted: for Mean Life Span / Mortality / Survival rate: mice infected with 10 LD50; for Mortality reduction: versus virus control. The protocol: Determination of the efficacy of the compounds in the murine influenza pneumonia model.
The experiments were carried out on 60 white mice weighing 12-15 g. The animals were infected intranasally under light ether anesthesia with the influenza A/Aichi/2/69 (H3N2) virus (10 LD50). The compounds to be tested were administered per os in a dose of 60 or 15 mg/kg/day. The treatment was carried out according to the following scheme: 24 hours and 1 hour before infection, and then 2 times a day (at 8 o'clock in the morning and 8 o'clock in the evening) for 5 days. The chemotherapeutic activity of Arbidol and compound A in the murine influenza pneumonia model was assessed according to two criteria: the index of protection against fatal viral infection and the increase in mean life span of the treated animals as compared with the control group. The mean life span of the mice was calculated according to the following formula: Σf(d−1)/n, where f is the number of mice dying on day d (the surviving mice were also included in f; d in this case=16); n is the number of mice in the group.

The subject of test [2] is Influenza A/New Caledonia/20/99 (H1N1) Virus. The experiment in a line: microbe, parasite or virus in culture. In kind it is cell-based. To be noted: for MIC50: Influenza A virus, H1N1, MDCK cells, concentration decreasing OD by 50%, solvent alcohol.

≈ marks a conversion by molar mass, not a printed value.

The record followed here is patent US20110144353A1, “5-HYDROXY-4-AMINOMETHYL-1-C[…] (CYCLOHEPTYL)--3-ALKO[…] DERIVATIVES, PHARMA[…] SALTS THEREOF AND A METHOD FOR THE PRODUCTION THEREOF” (OBSCHESTVO S ORGANICHENNOY OTVETSTVENNOSTJU <<BINATEKH>>, priority 2008, published 2011).

Regarding `CCOC(=O)c1c(CSc2ccccc2)n(C)c2cc(Br)c(O)c(CN(C)C)c12` [Arbidol, 1-methyl-2-phenylthiomethyl-3-carbethoxy-4-dimethylaminomethyl-5-oxy-6-bromindol], in test [1] (15 mg/kg/day per os), the “Mean Life Span” value came out at 7.3 days, the Mortality is on record as 70%, the Survival rate is 3/10 and the Mortality reduction is reported as 20%. In test [1] (60 mg/kg/day per os), the “Mean Life Span” value is 10.8 days, the Mortality worked out at 40%, the Survival rate was 6/10 and the Mortality reduction is given as 50%. In test [2], the “Activity at 10 μg/mL” value was 89.5% and the MIC50 was 6 µg/mL (≈ 12.6 µM).

`CCOC(=O)c1c(C)n(C2CCCCC2)c2ccc(O)c(CN(C)C)c12` [Compound A, 5-hydroxy-4-dimethylaminomethyl-2-methyl-1-cyclohexyl-3-ethoxycarbonyl indole]: in test [1] (15 mg/kg/day), the “Efficacy in animal experiments” value is “equal to the efficacy of Arbidol at a dose 4 times higher”. Also, in test [1] (15 mg/kg/day per os), the “Mean Life Span” value worked out at 11.5 days, the Mortality is listed as 40%, the Survival rate is given as 5/8 and the Mortality reduction stood at 50%. Moreover, the “Activity in animal experiments compared with Arbidol” value in test [1] (summary of Table 2) is on record as “significantly more active than Arbidol”. In test [2], the “Activity at 10 μg/mL” value stood at 96.5% and the MIC50 was found to be 5.4 µg/mL (≈ 15.1 µM). For the same molecule, the “Activity in in vitro experiments compared with Arbidol” value in test [2] (summary of Table 1) is “somewhat more active than Arbidol”.
